Measurements reported in patent publication US4889906A, “Amine salts of 1,4,2-oxazaphospholidine-4-acetic acid, 2-alkoxy-2-oxides” (Monsanto Company, priority 1988, dated 1989).
Where “and” joins values, the source holds several entries; their conditions need not be identical. Equal entries are not always repeated. Structures can show the parent of a compound that is named as a salt.

What was measured:
Format in all cases: in vivo
plants = assay: Biological activity, greenhouse tests according to Examples 3 and 4; settings: according to the procedure of Examples 3 and 4
From the text: Top soil was placed in pans having holes in the bottom and compacted to a depth of 0.95 to 1.27 cm from the top of the pan. A predetermined number of seeds of each of several plant species or vegetative propagules for perennial plant species were placed on the soil and pressed into the soil surface. The seeds or propagules were covered with soil and leveled. The pans were then placed on a bench in the greenhouse and watered as needed for germination and growth. After the plants reached the desired age (2 to 3 weeks) each pan, except the control pans, was removed to a spraying chamber and sprayed by means of an atomizer. In the spray solution, an emulsifying agent was added to give a spray solution which contains about 0.4% by volume of the emulsifier. The spray solution contained a sufficient amount of the compound of Example 1 to give an application rate of the active ingredient of 2.8 g/m^2 (25 lbs. per acre) and 5.6 g/mz (50 lbs. per acre), while applying a total amount of solution equivalent to 187 ml/m^2 (200 gal per acre). […]
Established stands of fescue (Kentucky bluegrass No. 31) in pots having an area of about 100 cm (16 square inches) were trimmed to a uniform height. […] After two weeks, the height of the grass was measured. […]

[1] = tested on: fescue (Kentucky bluegrass No. 31); assay: Plant growth regulating activity, greenhouse; settings: 0.56 g/m^2 (5 lbs. per acre), two weeks
Experimental: Established stands of fescue (Kentucky bluegrass No. 31) in pots having an area of about 100 cm (16 square inches) were trimmed to a uniform height. Duplicate pots were removed to a spraying chamber and sprayed by means of an atomizer as in Example 3. The application rate of the active ingredient was 0.56 g/m^2 (5 lbs. per acre) while applying a total amount of solution equivalent to 187 ml/m^2 (200 gal/acre). The pots were returned to the greenhouse and watered with the controls on a daily basis. After two weeks, the height of the grass was measured.

Yellow Nutsedge = assay: Post-emergent herbicide activity, greenhouse; settings: 5.6 g/m^2
From the text: (§1) Top soil was placed in pans having holes in the bottom and compacted to a depth of 0.95 to 1.27 cm from the top of the pan. A predetermined number of seeds of each of several plant species or vegetative propagules for perennial plant species were placed on the soil and pressed into the soil surface. The seeds or propagules were covered with soil and leveled. The pans were then placed on a bench in the greenhouse and watered as needed for germination and growth. After the plants reached the desired age (2 to 3 weeks) each pan, except the control pans, was removed to a spraying chamber and sprayed by means of an atomizer. In the spray solution, an emulsifying agent was added to give a spray solution which contains about 0.4% by volume of the emulsifier. The spray solution contained a sufficient amount of the compound of Example 1 to give an application rate of the active ingredient of 2.8 g/m^2 (25 lbs. per acre) and 5.6 g/mz (50 lbs. per acre), while applying a total amount of solution equivalent to 187 ml/m^2 (200 gal per acre). The pans were returned to the greenhouse and watered as before, and the injury to the plants as compared to those in control pans was observed after 14 days after spraying, and again, 27 days after spraying.

Cocklebur = assay: Post-emergent herbicide activity, greenhouse; settings: 5.6 g/m^2
From the text: as §1

Downy Brome = assay: Post-emergent herbicide activity, greenhouse; settings: 5.6 g/m^2
From the text: as §1

Canada Thistle = assay: Post-emergent herbicide activity, greenhouse; settings: 5.6 g/m^2
From the text: as §1

Rhizone Johnsongrass = assay: Post-emergent herbicide activity, greenhouse; settings: 5.6 g/m^2
From the text: as §1

Common Lambsquarters = assay: Post-emergent herbicide activity, greenhouse; settings: 5.6 g/m^2
From the text: as §1

Morningglory = assay: Post-emergent herbicide activity, greenhouse; settings: 5.6 g/m^2
From the text: as §1

Pennsylvania Smartweed = assay: Post-emergent herbicide activity, greenhouse; settings: 5.6 g/m^2
From the text: as §1

Barnyardgrass = assay: Post-emergent herbicide activity, greenhouse; settings: 5.6 g/m^2
From the text: as §1

Quackgrass = assay: Post-emergent herbicide activity, greenhouse; settings: 5.6 g/m^2
From the text: as §1

Velvetleaf = assay: Post-emergent herbicide activity, greenhouse; settings: 5.6 g/m^2
From the text: as §1

For COP1(=O)CN(CC(=O)O)CO1 (stereo not drawn) [Example 2, 1,4,2-oxazaphospholidine-4-acetic acid, 2-alkoxy-2-oxide], the “biological activity (post-emergent herbicide and plant growth regulating), in words” value (plants) was “Satisfactory results are achieved”.

COP1(=O)CN(CC(=O)O)CO1 (stereo not drawn) [Example 5, Triisopropylamine Salt of 1,4,2-Oxazaphospholidine-4-Acetic Acid, 2-Methoxy-2-Oxide] was tested, and the “biological activity (post-emergent herbicide and plant growth regulating), in words” value (plants) was “Satisfactory results are achieved”.

COP1(=O)CN(CC(=O)O)CO1 (stereo not drawn) [Example 1, triethylamine salt of 1,4,2-oxazaphospholidine-4-acetic acid, 2-methoxy-2-oxide] was tested, and the “average growth rate of treated fescue relative to controls” value [1] was 43 % of the controls, the “growth of treated grass over two-week period” value ([1]; duplicate pots, control pots grew average 199.58 mm) was 80 mm and 90 mm and the “discoloration or other sign of phytotoxicity” value ([1]; fescue) was “did not show any discoloration or other sign of phytotoxicity”. For the same molecule, the “Plant Response After 14 Days” value (Yellow Nutsedge; 14 days after spraying) was 0 (0-24% inhibition), the “Plant Response After 27 Days” value (Yellow Nutsedge; 27 days after spraying) was 1 (25-49% inhibition) and the “Plant Response After 14 Days” value (Cocklebur; 14 days after spraying) was 1 (25-49% inhibition). For the same molecule, the “Plant Response After 27 Days” value (Cocklebur; 27 days after spraying) was 1 (25-49% inhibition), the “Plant Response After 14 Days” value (Downy Brome; 14 days after spraying) was 0 (0-24% inhibition) and the “Plant Response After 27 Days” value (Downy Brome; 27 days after spraying) was 0 (0-24% inhibition). For the same molecule, the “Plant Response After 14 Days” value (Canada Thistle; 14 days after spraying) was 0 (0-24% inhibition), the “Plant Response After 27 Days” value (Canada Thistle; 27 days after spraying) was 0 (0-24% inhibition) and the “Plant Response After 14 Days” value (Rhizone Johnsongrass; 14 days after spraying) was 0 (0-24% inhibition). The “Plant Response After 27 Days” value (Rhizone Johnsongrass; 27 days after spraying) was 0 (0-24% inhibition), the “Plant Response After 14 Days” value (Common Lambsquarters; 14 days after spraying) was 0 (0-24% inhibition) and the “Plant Response After 27 Days” value (Common Lambsquarters; 27 days after spraying) was 0 (0-24% inhibition). For the same molecule, the “Plant Response After 14 Days” value (Morningglory; 14 days after spraying) was 1 (25-49% inhibition), the “Plant Response After 27 Days” value (Morningglory; 27 days after spraying) was 1 (25-49% inhibition) and the “Plant Response After 14 Days” value (Pennsylvania Smartweed; 14 days after spraying) was 0 (0-24% inhibition). The “Plant Response After 27 Days” value (Pennsylvania Smartweed; 27 days after spraying) was 0 (0-24% inhibition), the “Plant Response After 14 Days” value (Barnyardgrass; 14 days after spraying) was 1 (25-49% inhibition) and the “Plant Response After 27 Days” value (Barnyardgrass; 27 days after spraying) was 1 (25-49% inhibition). The “Plant Response After 14 Days” value (Quackgrass; 14 days after spraying) was 0 (0-24% inhibition), the “Plant Response After 27 Days” value (Quackgrass; 27 days after spraying) was 1 (25-49% inhibition) and the “Plant Response After 14 Days” value (Velvetleaf; 14 days after spraying) was 0 (0-24% inhibition). For the same molecule, the “Plant Response After 27 Days” value (Velvetleaf; 27 days after spraying) was 0 (0-24% inhibition).
